Results: patent US12599596B2, “Anti-tumor pharmaceutical composition based on immune checkpoint blockade and use thereof” (Shanghai Hui Tian Jin Ze Biotech Co., Ltd., priority 2023, dated 2026)

Key:
Assay in all cases: PD-L1 on cell membrane by flow cytometry
Assay type in all cases: cell-based
Conditions in all cases: concentration-dependent 5, 10, 20 μM, 24 h
[1] = test system: PD-L1 on A549 lung cancer cell membrane
Method: (§1) • (1) Different types of tumor cells (RKO, HCT116 and HT29 colon cancer cells, and A549, H1975 and H460 lung cancer cells) in the logarithmic growth phase were respectively inoculated on a 6-well plate at an inoculum density of 2.5×10^5 cells/well with 2 mL/well and then placed in a cell incubator overnight incubation. The culture mixture was removed, CBD at different concentrations (0 μM, 5 μM, 10 μM, and 20 μM) was added for treatment for 24 h, the supernatant was removed, and the cells were washed with PBS 2 times, digested with pancreatin, centrifuged at 300×g and 4° C. for 5 min, and collected. The cells were washed with precooled PBS 2 times, centrifuged at 300×g and 4° C. for 5 min, and collected. The cells were washed 2 times with precooled PBS, 100 μL of PBS was added to resuspend the cells, an anti-PD-L1-Alexa Fluor 647 antibody was added, the cells were incubated at room temperature for 30 min and centrifuged at 300×g and 4° C. for 5 min, 300 μL of PBS was added to resuspend the cells in a flow tube, and an Alexa Fluor 647 signal was detected from the sample using a flow cytometer (excitation/emission wavelength of 647 nm/666 nm). • (2) The colorectal cancer cells (RKO) in the logarithmic growth phase were inoculated into a 6-well plate at a density of 2.5×10^5 cells/well, with a 2 mL volume of the suspension in each well. The plate was placed into a cell incubator for incubation overnight, the culture mixture was removed, 20 μM CBD was added for 12 h, the supernatant was removed, PBS was used for washing 2 times, paraformaldehyde was added for fixing for 15 min, 5% BSA was added for fixing for 1 h, PBST was used for washing 2 times, a PD-L1 antibody was added overnight incubation, a red fluorescent antibody was added for incubation at room temperature for 1 h, DAPI was added for staining for 10 min, and finally, a laser scanning confocal microscope was used for photographing and analysis. 4. Research of CBD on Enhancing In Vitro Killing of Tumor Cells by T Cells

[2] = test system: PD-L1 on H1975 lung cancer cell membrane
Method: as §1

[3] = test system: PD-L1 on H460 lung cancer cell membrane
Method: as §1

[4] = test system: PD-L1 on HCT116 colon cancer cell membrane
Method: as §1

[5] = test system: PD-L1 on HT29 colon cancer cell membrane
Method: as §1

[6] = test system: PD-L1 on RKO colon cancer cell membrane
Method: as §1

Measured: expression of PD-L1 on the cell membrane (flow assay)

C=C(C)[C@@H]1CCC(C)=C[C@H]1c1c(O)cc(CCCCC)cc1O [CBD, cannabidiol]
decreased the expression of PD-L1: all assays above
